Results published in the NIST ThermoML archive (doi:10.1021/je400463n).

Assay: mn = molality of the nth substance listed, in mol/kg
Conditions: 100 kPa, Liquid, Pycnometric method

CCCCCCCCCCCC[N+](C)(CCO)CCO.[Br-] [N,N-bis(2-hydroxyethyl)-N-methyldodecan-1-aminium bromide] + O
mass density [kg/m3]
Conditions | 293.15 K | 298.15 K | 303.15 K | 308.15 K | 313.15 K | 318.15 K
m1 = 0.00497 | 998.465 | 997.294 | 995.89 | 994.266 | 992.443 | 990.43
m1 = 0.00607 | 998.521 | 997.349 | 995.942 | 994.317 | 992.492 | 990.478
m1 = 0.00698 | 998.568 | 997.394 | 995.986 | 994.359 | 992.533 | 990.518
m1 = 0.00805 | 998.622 | 997.446 | 996.036 | 994.408 | 992.58 | 990.564
m1 = 0.00909 | 998.675 | 997.498 | 996.086 | 994.456 | 992.626 | 990.609
m1 = 0.01002 | 998.722 | 997.544 | 996.13 | 994.499 | 992.667 | 990.649
m1 = 0.01109 | 998.774 | 997.597 | 996.18 | 994.548 | 992.714 | 990.695
m1 = 0.01202 | 998.818 | 997.641 | 996.222 | 994.59 | 992.755 | 990.735
m1 = 0.01306 | 998.867 | 997.686 | 996.268 | 994.637 | 992.801 | 990.78
m1 = 0.01414 | 998.915 | 997.734 | 996.315 | 994.681 | 992.847 | 990.825
m1 = 0.01505 | 998.953 | 997.771 | 996.353 | 994.719 | 992.884 | 990.862
m1 = 0.01609 | 998.993 | 997.811 | 996.394 | 994.756 | 992.923 | 990.9
m1 = 0.01815 | 999.08 | 997.897 | 996.476 | 994.837 | 993.001 | 990.98
m1 = 0.02008 | 999.16 | 997.976 | 996.554 | 994.913 | 993.076 | 991.051
m1 = 0.02518 | 999.367 | 998.178 | 996.752 | 995.11 | 993.267 | 991.242
m1 = 0.03023 | 999.571 | 998.38 | 996.95 | 995.305 | 993.46 | 991.431
m1 = 0.03525 | 999.778 | 998.58 | 997.146 | 995.497 | 993.649 | 991.62
m1 = 0.04028 | 999.983 | 998.782 | 997.344 | 995.692 | 993.84 | 991.807
m1 = 0.04512 | 1000.19 | 998.981 | 997.539 | 995.884 | 994.027 | 991.991
m1 = 0.05025 | 1000.4 | 999.187 | 997.74 | 996.082 | 994.223 | 992.184

CCCCCCCCCCCC[N+](C)(C)CCO.[Br-] [dodecyl(2-hydroxyethyl)dimethylammonium bromide] + O
mass density [kg/m3]
Conditions | 293.15 K | 298.15 K | 303.15 K | 308.15 K | 313.15 K | 318.15 K
m1 = 0.00798 | 998.5 | 997.328 | 995.92 | 994.291 | 992.462 | 990.446
m1 = 0.009 | 998.537 | 997.364 | 995.954 | 994.324 | 992.494 | 990.476
m1 = 0.01003 | 998.574 | 997.4 | 995.989 | 994.356 | 992.525 | 990.506
m1 = 0.01099 | 998.61 | 997.434 | 996.02 | 994.387 | 992.554 | 990.534
m1 = 0.01195 | 998.646 | 997.468 | 996.053 | 994.418 | 992.584 | 990.562
m1 = 0.013 | 998.684 | 997.503 | 996.087 | 994.451 | 992.616 | 990.593
m1 = 0.01395 | 998.716 | 997.536 | 996.117 | 994.481 | 992.644 | 990.621
m1 = 0.01498 | 998.747 | 997.566 | 996.147 | 994.511 | 992.676 | 990.65
m1 = 0.01595 | 998.774 | 997.591 | 996.174 | 994.537 | 992.701 | 990.679
m1 = 0.01793 | 998.831 | 997.647 | 996.226 | 994.588 | 992.75 | 990.727
m1 = 0.01991 | 998.886 | 997.7 | 996.278 | 994.637 | 992.8 | 990.776
m1 = 0.02489 | 999.025 | 997.835 | 996.408 | 994.766 | 992.92 | 990.893
m1 = 0.02994 | 999.159 | 997.963 | 996.535 | 994.888 | 993.043 | 991.013
m1 = 0.03493 | 999.299 | 998.101 | 996.667 | 995.018 | 993.17 | 991.136
m1 = 0.0399 | 999.439 | 998.235 | 996.795 | 995.142 | 993.291 | 991.254
m1 = 0.04493 | 999.582 | 998.372 | 996.93 | 995.274 | 993.419 | 991.378
m1 = 0.04982 | 999.714 | 998.5 | 997.055 | 995.395 | 993.537 | 991.49
m1 = 0.05488 | 999.856 | 998.637 | 997.186 | 995.52 | 993.66 | 991.613

CCCCCCCCCCCC[N+](C)(C)C.[Br-] [dodecyltrimethylammonium bromide] + O
mass density [kg/m3]
Conditions | 293.15 K | 298.15 K | 303.15 K | 308.15 K | 313.15 K | 318.15 K
m1 = 0.00608 | 998.345 | 997.176 | 995.77 | 994.144 | 992.319 | 990.306
m1 = 0.00707 | 998.368 | 997.197 | 995.79 | 994.162 | 992.336 | 990.321
m1 = 0.00796 | 998.388 | 997.216 | 995.807 | 994.178 | 992.35 | 990.334
m1 = 0.00897 | 998.411 | 997.237 | 995.827 | 994.196 | 992.367 | 990.349
m1 = 0.00999 | 998.434 | 997.259 | 995.847 | 994.214 | 992.383 | 990.364
m1 = 0.01096 | 998.456 | 997.28 | 995.866 | 994.232 | 992.399 | 990.379
m1 = 0.01199 | 998.48 | 997.302 | 995.886 | 994.25 | 992.416 | 990.394
m1 = 0.01299 | 998.503 | 997.324 | 995.905 | 994.268 | 992.432 | 990.409
m1 = 0.01398 | 998.524 | 997.343 | 995.923 | 994.286 | 992.448 | 990.424
m1 = 0.01503 | 998.543 | 997.363 | 995.942 | 994.304 | 992.466 | 990.44
m1 = 0.01596 | 998.556 | 997.376 | 995.956 | 994.32 | 992.48 | 990.454
m1 = 0.01802 | 998.592 | 997.408 | 995.986 | 994.345 | 992.506 | 990.48
m1 = 0.02001 | 998.622 | 997.435 | 996.013 | 994.37 | 992.532 | 990.503
m1 = 0.02494 | 998.695 | 997.505 | 996.077 | 994.432 | 992.587 | 990.558
m1 = 0.02994 | 998.775 | 997.58 | 996.147 | 994.498 | 992.647 | 990.616
m1 = 0.03501 | 998.85 | 997.647 | 996.212 | 994.557 | 992.706 | 990.671
m1 = 0.03995 | 998.918 | 997.712 | 996.271 | 994.615 | 992.76 | 990.721
m1 = 0.04505 | 998.991 | 997.78 | 996.336 | 994.675 | 992.817 | 990.774
m1 = 0.04973 | 999.061 | 997.845 | 996.396 | 994.733 | 992.871 | 990.824
m1 = 0.05498 | 999.145 | 997.923 | 996.47 | 994.801 | 992.935 | 990.883
m1 = 0.06001 | 999.217 | 997.992 | 996.535 | 994.86 | 992.993 | 990.938
